Values of other authors, collected in paper PMC4021529 (British Journal of Cancer, 2014).
Read-outs that look alike come from different tables or passages of the source.

Tested on: advanced solid tumours
Conditions: phase I trial, advanced solid malignancies, cited from earlier work

SMILES	objective responses (ref Garland et al, 2006)	objective responses (ref Olmos et al, 2011)
COc1ccc(S(=O)(=O)N(C(C)=O)c2ccccc2/C=C/c2cc[n+]([O-])cc2)cc1 [HMN-214]	no objective responses	–
C[C@@H](Oc1cc(-n2cnc3ccc(CN4CCN(C)CC4)cc32)sc1C(N)=O)c1ccccc1C(F)(F)F [GSK461364]	–	no objective responses
